From article PMC12362796, “Bilirubin Targeting WNK1 to Alleviate NLRP3‐Mediated Neuroinflammation” (Advanced Science, 2025)

Columns and labels:
MRGPRs = molecular target: MRGPRs; parameters: method as in PMID 37390966, PMID 30657454; conditions: peripheral sensory neurons; cited from earlier work
hWNK1 (181–507) = molecular target: T1, hWNK1 (181–507) (Homo sapiens, UniProt Q9H4A3); test: ADP-Glo kinase assay, purified hWNK1 kinase domain; assay type: biochemical; conditions: ADP production, luminescence normalized to reactions lacking bilirubin; 12 serial dilutions from 20 µM; read-out: EC50, activation of WNK1 kinase activity
T1 construct: the amino acid fragment 181–507 of human WNK1 (hWNK1)
Source text: Given the binding of bilirubin to the kinase domain of WNK1, we aimed to explore its effect on WNK1 with a particular focus on its kinase activity. To evaluate WNK1 kinase activity, we utilized an in vitro kinase enzyme assay system to quantify ADP production by the amino acid fragment 181–507 of human WNK1 (hWNK1) over a range of bilirubin concentrations. The kinase‐dead WNK1 mutant hWNK1(181–507 S382A) served as a negative control (Figure S10, Supporting Information).^[ [30] ^]
WNK1 kinase activity was measured using the ADP‐Glo Kinase Assay (Promega, Cat. V9101) following the manufacturer's instructions. Purified protein was incubated with bilirubin across a range of 12 serially diluted concentrations, beginning at a maximum concentration of 20 µM. After the incubation period, luminescence was recorded using a microplate reader (Synergy H1M, BioTek)

full-length hWNK1 = molecular target: T2, full-length hWNK1 (Homo sapiens, UniProt Q9H4A3); test: MicroScale Thermophoresis (MST), EGFP-tagged full-length WNK1 in HEK293T cell lysates; assay type: binding; conditions: 15 min incubation, lysates of EGFP-WNK1 expressing HEK293T cells
T2 construct: We overexpressed full‐length WNK1 fused with Green Fluorescent Protein (GFP); expressed in transfected cells; host or cells: HEK293T
Method: (§1) To validate the direct binding of bilirubin to WNK1, we performed a Microscale Thermophoresis (MST) analysis, which assesses the binding capacity of a compound by measuring the movement of proteins over a microscopic temperature gradient.^[ [26], [27] ^] We overexpressed full‐length WNK1 fused with Green Fluorescent Protein (GFP) in HEK‐293 cells, incubated the lysates with bilirubin at varying dilutions, and subjected them to precise MST measurements in capillaries. […] Furthermore, biliverdin, a structurally similar intermediate product generated before bilirubin formation, was used as a control.
(§2) All WNK1 clones were derived from the original untagged hWNK1 cDNA (NM_018979), which was modified and subcloned into the pcDNA3.1, referred to as “full‐length WNK1” throughout this study. Truncated constructs, including 1–190aa, 191–491aa, 1–491aa, and 491–2382aa fragments, were generated by PCR using the full‐length template and subsequently ligated into linearized pcDNA3.1 vectors. WNK2 was obtained from Addgene Plasmid #24569, and WNK3 was obtained from Addgene Plasmid #81723. Both were subjected to base modifications and cloned into pcDNA3.1. The WNK4 clone was derived from hWNK4 cDNA (NM_032387.5), modified, and subcloned into the pCMV3‐C‐GFPSpark vector.
(§3) In HEK293T cells, proteins tagged with green fluorescent protein (GFP) were expressed. […]

hWNK3 = molecular target: T3, hWNK3 (Homo sapiens, UniProt Q9BYP7); test: MST, WNK kinase family member WNK3; assay type: binding
T3 construct: host or cells: HEK293T
Method: as §1, §2, §3

FABP1 = test system: FABP1; parameters: method as in PMID 37390966, PMID 34067839; conditions: cited from earlier work
primary astrocytes = test: MQAE intracellular chloride measurement in primary astrocytes; assay type: cell-based; conditions: lacking KCC2 expression
Source text: (§4) Since bilirubin‐induced activation of WNK1 kinase activity increases [Cl⁻]i in neurons, we sought to elucidate the downstream effector proteins of WNK1 that are involved in this process. Neuronal [Cl⁻]i is primarily regulated by the Cl⁻‐K⁺ symporter KCC2, with additional modulation by factors such as the Na⁺‐K⁺‐Cl⁻ co‐transporter NKCC1, GABAA receptors, and glycine receptors (GlyR), all of which contribute to [Cl⁻]i homeostasis.^[ [31] ^] To investigate the mechanism underlying bilirubin‐induced changes in [Cl⁻]i, we selectively targeted these proteins using pharmacological inhibitors (VU0463271 for KCC2, bumetanide for NKCC1, bicuculline for GABAA receptors, and strychnine for GlyR) and activated KCC2 using CLP257.^[ [35], [36] ^] […] The bilirubin‐induced effect on [Cl⁻]i was not observed in primary astrocytes (Figure S15A,B, Supporting Information) or the HEK 293T cell line (Figure S15C, Supporting Information), both of which lacked KCC2 expression (Figure S16A,B, Supporting Information), further confirming that the effects of bilirubin and WNK1 on [Cl⁻]i elevation are dependent on KCC2.
(§5) Intracellular chloride concentration ([Cl⁻]i) was measured using the MQAE fluorescent dye (Life Technologies) following established protocols (Zhang, Lee et al. 2015). […]

[1] = test system: primary cultured hippocampal neurons; test: MQAE intracellular chloride measurement in primary cultured hippocampal neurons; assay type: cell-based, mouse
Source text: Therefore, we hypothesized that bilirubin activation of WNK1 kinase activity might affect intracellular chloride levels. […] This was detected using the sensitive molecular probe N‐(Ethoxycarbonylmethyl)‐6‐Methoxyquinolinium Bromide (MQAE), as indicated by a reduction in MQAE fluorescence intensity (Figure 4C,E).^[ [32] ^]
To ascertain whether bilirubin regulates chloride ions through WNK1, we generated Wnk1 gene knockout primary cultured neurons. We achieved neuron‐specific deletion of Wnk1 in hippocampal neurons by transducing primary neurons isolated from Wnk1^flox/flox embryonic mice with a lentivirus expressing hSyn‐Cre‐EGFP.^[ [33], [34] ^] […] Intracellular chloride concentration is crucial for modulating inhibitory synaptic transmission and, consequently, neuronal excitability.
as §4, §5

T3 sequence (Q9BYP7 whole entry): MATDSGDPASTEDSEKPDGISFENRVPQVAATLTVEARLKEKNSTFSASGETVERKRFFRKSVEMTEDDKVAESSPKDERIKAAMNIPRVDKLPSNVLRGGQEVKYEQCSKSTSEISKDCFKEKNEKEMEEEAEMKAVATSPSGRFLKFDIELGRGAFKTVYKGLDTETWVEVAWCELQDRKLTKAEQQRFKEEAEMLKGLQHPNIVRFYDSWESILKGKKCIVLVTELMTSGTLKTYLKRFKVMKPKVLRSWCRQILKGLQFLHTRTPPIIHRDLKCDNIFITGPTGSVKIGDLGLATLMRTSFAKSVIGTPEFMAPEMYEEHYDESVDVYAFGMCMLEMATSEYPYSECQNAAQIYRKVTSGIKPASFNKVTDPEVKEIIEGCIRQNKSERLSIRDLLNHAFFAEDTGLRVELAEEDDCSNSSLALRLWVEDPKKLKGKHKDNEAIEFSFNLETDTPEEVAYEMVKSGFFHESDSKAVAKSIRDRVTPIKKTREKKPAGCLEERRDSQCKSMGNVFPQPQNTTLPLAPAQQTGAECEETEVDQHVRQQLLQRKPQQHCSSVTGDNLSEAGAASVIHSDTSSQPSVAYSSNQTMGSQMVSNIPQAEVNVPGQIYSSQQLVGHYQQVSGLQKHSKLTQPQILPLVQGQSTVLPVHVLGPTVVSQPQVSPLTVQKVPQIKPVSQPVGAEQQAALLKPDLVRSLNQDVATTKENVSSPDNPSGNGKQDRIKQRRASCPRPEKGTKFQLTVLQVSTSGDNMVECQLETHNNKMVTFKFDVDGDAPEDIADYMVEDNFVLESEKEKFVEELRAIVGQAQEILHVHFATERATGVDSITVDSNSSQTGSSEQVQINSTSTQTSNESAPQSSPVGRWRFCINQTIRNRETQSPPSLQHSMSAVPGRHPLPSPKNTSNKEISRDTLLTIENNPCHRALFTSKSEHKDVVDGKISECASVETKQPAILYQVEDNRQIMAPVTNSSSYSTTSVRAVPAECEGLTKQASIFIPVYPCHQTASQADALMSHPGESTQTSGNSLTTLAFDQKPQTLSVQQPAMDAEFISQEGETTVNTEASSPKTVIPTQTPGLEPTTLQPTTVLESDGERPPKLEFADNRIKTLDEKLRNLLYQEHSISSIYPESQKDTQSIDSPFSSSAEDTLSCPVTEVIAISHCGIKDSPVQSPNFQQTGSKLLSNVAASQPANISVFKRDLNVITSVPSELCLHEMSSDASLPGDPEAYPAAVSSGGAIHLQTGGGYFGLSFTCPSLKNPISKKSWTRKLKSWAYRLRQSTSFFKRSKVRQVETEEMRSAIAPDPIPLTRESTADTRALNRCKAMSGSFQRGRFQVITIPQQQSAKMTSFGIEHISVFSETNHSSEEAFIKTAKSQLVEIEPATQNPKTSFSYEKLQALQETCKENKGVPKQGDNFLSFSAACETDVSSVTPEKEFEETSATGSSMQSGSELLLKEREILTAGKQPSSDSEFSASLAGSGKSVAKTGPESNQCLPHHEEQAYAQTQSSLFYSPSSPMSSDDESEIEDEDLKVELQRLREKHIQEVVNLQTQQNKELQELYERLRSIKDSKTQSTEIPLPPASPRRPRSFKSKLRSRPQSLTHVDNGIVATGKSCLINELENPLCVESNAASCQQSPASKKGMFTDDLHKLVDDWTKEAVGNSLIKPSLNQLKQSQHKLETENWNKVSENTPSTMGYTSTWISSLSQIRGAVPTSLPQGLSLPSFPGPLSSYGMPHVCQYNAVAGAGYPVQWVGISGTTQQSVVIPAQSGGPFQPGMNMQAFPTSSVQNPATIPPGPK
T1 sequence (Q9H4A3 181-507): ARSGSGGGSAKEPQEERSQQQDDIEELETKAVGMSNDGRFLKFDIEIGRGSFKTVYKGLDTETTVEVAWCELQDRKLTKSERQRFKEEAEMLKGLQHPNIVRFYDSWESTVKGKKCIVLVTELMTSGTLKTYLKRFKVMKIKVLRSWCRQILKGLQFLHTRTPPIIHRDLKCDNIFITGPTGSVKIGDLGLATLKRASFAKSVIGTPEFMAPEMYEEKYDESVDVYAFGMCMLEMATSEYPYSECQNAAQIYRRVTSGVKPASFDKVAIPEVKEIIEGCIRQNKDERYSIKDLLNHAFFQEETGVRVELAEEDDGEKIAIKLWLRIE
T2 sequence (Q9H4A3 whole entry, the tested form may be a part): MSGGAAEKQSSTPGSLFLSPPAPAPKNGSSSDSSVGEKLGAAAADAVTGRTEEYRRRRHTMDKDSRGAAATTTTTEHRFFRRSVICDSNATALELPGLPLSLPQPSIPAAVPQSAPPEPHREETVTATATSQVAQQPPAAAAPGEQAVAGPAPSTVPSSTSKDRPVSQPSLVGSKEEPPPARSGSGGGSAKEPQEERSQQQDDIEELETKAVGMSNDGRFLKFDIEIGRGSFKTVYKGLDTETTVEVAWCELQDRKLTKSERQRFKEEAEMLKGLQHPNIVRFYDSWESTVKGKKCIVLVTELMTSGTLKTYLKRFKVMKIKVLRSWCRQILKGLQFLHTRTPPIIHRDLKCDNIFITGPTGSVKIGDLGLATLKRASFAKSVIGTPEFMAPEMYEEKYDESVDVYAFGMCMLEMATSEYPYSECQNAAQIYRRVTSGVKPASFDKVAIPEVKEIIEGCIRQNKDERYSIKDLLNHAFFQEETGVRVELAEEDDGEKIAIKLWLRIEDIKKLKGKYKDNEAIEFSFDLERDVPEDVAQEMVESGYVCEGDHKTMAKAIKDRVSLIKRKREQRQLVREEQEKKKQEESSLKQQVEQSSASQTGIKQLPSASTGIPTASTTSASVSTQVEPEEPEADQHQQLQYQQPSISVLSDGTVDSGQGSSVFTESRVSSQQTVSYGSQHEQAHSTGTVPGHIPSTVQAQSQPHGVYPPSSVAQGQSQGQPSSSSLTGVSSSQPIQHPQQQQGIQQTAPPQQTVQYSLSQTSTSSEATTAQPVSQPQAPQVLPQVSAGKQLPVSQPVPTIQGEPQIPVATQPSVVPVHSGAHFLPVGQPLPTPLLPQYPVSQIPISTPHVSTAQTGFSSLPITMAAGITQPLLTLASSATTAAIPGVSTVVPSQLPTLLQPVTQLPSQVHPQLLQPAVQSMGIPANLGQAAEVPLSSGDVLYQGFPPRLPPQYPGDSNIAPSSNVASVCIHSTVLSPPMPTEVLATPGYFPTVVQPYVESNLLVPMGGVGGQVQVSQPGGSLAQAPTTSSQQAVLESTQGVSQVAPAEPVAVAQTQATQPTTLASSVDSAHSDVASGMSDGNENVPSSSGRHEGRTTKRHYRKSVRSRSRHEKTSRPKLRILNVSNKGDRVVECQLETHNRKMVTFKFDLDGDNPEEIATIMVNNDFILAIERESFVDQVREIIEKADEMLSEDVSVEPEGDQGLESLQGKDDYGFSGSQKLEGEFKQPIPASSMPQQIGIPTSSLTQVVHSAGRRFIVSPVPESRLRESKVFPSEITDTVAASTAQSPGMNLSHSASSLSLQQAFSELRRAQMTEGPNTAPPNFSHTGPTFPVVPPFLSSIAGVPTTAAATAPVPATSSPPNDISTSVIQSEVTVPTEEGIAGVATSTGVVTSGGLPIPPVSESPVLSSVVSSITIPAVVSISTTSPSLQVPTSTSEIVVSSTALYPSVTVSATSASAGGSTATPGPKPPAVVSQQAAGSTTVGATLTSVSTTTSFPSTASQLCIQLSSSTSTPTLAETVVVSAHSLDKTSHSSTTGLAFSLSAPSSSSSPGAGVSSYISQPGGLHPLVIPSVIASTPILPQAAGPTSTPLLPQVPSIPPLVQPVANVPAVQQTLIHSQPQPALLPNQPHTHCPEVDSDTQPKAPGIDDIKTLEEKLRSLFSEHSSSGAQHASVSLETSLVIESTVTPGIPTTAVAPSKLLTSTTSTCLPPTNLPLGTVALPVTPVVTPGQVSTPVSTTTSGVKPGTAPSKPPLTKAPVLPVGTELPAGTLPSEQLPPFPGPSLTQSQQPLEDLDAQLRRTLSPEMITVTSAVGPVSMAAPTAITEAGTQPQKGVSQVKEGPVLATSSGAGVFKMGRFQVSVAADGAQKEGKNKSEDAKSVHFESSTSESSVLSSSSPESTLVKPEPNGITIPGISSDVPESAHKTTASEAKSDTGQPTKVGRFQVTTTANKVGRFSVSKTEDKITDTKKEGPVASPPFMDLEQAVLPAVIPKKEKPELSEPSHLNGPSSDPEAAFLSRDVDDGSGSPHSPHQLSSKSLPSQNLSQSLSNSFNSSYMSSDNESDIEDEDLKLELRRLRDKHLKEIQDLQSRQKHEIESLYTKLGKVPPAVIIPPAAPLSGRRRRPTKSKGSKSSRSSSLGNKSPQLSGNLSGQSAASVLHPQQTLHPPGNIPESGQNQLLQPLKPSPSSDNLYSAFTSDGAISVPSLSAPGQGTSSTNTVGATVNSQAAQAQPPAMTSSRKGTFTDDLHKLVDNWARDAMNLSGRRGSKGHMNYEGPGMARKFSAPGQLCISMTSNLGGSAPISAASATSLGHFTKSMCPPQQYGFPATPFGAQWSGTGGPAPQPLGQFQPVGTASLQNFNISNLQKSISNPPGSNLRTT

EC50 (hWNK1 (181–507)): 896 nM | Kd (full-length hWNK1): 67.2 nM | Kd (hWNK3): 760 nM
Structure (SMILES): C=CC1=C(C)/C(=C/c2[nH]c(Cc3[nH]c(/C=C4\NC(=O)C(C)=C4C=C)c(C)c3CCC(=O)O)c(CCC(=O)O)c2C)NC1=O [bilirubin, Bilirubin]
Kd (MRGPRs): 54400 to 92900 nM | concentrations at which FABP1 binds bilirubin (FABP1): 1 to 4 µM | bilirubin-induced effect on [Cl−]i (primary astrocytes): not observed | [Cl−]i levels after Wnk1 deletion ([1]; Wnk1 knockout primary neurons (hSyn-Cre lentivirus)): failed to increase | intracellular chloride concentration ([1]; varying concentrations, 30 min, MQAE fluorescence): significant increase
